Like-named read-outs stand apart in the source and are kept apart here.
Columns and labels:
hPXR [1] = molecular target: T1, hPXR (Homo sapiens (Human), UniProt O75469); test: hPXR binding assay; conditions: for inhibition at 10 µM: read-out: Binding (% inhibition at 10 μM)
hPXR [2] = molecular target: T1, hPXR; test: cell-based hPXR antagonistic assay; conditions: for inhibition at 10 µM: read-out: Antagonist (% inhibition at 10 μM); for Antagonist (% inhibition at 10 μM): SPA70 at 10 μM with rifampicin (5 μM) as 100% inhibition, rifampicin alone (5 μM) as 0%
hPXR [3] = molecular target: T1, hPXR; test: cell-based hPXR agonistic assay; conditions: for Agonist (% activation at 10 μM): rifampicin at 10 μM as 100% activation, DMSO (0.3%) as 0%
hPXR [4] = molecular target: T1, hPXR; test: cell-based hPXR inverse agonistic assay; conditions: for inhibition at 10 µM: read-out: Inverse agonist (% inhibition at 10 μM)
[5] = read-out: Binding (IC50/μM), hPXR binding assay
[6] = read-out: Agonist (EC50/μM), cell-based hPXR agonistic assay
[7] = read-out: Antagonist (IC50/μM), cell-based hPXR antagonistic assay with rifampicin (5 μM)
[8] = read-out: Inverse agonist (IC50/μM), cell-based hPXR inverse agonistic assay

T1 sequence (O75469 whole entry): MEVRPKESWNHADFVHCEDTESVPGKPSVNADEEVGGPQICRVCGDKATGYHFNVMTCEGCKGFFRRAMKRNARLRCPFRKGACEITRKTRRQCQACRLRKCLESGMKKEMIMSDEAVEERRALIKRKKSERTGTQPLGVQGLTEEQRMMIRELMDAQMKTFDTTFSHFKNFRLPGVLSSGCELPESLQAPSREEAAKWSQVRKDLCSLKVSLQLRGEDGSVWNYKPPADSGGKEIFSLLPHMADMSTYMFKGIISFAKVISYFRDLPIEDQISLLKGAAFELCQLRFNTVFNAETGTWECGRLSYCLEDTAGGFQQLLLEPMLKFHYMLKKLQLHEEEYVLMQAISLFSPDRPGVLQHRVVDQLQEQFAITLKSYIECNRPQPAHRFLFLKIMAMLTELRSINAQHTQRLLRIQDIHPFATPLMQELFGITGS

Row | inhibition at 10 µM (hPXR [1]) [%] | IC50 (hPXR [1]; [5]) [µM] | IC50 (hPXR [2]) [µM] | inhibition at 10 µM (hPXR [2]) [%] | EC50 (hPXR [3]) [µM] | IC50 (hPXR [4]) [µM] | inhibition at 10 µM (hPXR [4]) [%] | IC50 (hPXR [1]) [µM] | Agonist (% activation at 10 μM) (hPXR [3]) | EC50 (hPXR [3]; [6]) [µM] | Antagonist (% inhibition at 10 μM) (hPXR [2]) | IC50 (hPXR [2]; [7]) [µM] | IC50 (hPXR [4]; [8]) [µM] | Structure (SMILES)
1 | 57 | 5.62 ± 0.49 | 7.05 ± 3.48 | 79 | > 30 | 18.9 ± 3.74 | 47 | – | – | – | – | – | – | COc1ccc(C)cc1-n1nnc(C(=O)Nc2cc(N)cc(C(C)(C)C)c2)c1C [G5, N-(3-amino-5-(tert-butyl)phenyl)-1-(2-methoxy-5-methylphenyl)-5-methyl-1H-1,2,3-triazole-4-carboxamide]
2 | 70 | 1 ± 0.08 | 2.14 ± 0.36 | 92 | > 30 | 1.14 ± 0.58 | 91 | – | – | – | – | – | – | COCCOCCOCCOCCOc1cc(NC(=O)c2nnn(-c3cc(OC)ccc3OC)c2C)cc(C(C)(C)C)c1 [D27]
3 | 68 | 0.5 ± 0.12 | 2.48 | 86 | > 30 | 0.43 ± 0.14 | 95 | – | – | – | – | – | – | COc1ccc(OC)c(-n2nnc(C(=O)Nc3cc(C(C)(C)C)ccc3OCCCCCCCCI)c2C)c1 [B19]
4 | – | – | > 30 | – | > 30 | > 30 | – | > 30 | – | – | – | – | – | COc1ccc(OC)c(-n2nnc(C(=O)Nc3cc(OCC(=O)O)cc(C(C)(C)C)c3)c2C)c1 [D32]
5 | 81 | 2.29 ± 0.83 | 1.31 ± 0.23 | 103 | > 30 | 0.64 | 75 | – | – | – | – | – | – | COc1ccc(C)cc1-n1nnc(C(=O)Nc2cc(O)cc(C(C)(C)C)c2)c1C [G7, N-(3-(tert-butyl)-5-hydroxyphenyl)-1-(2-methoxy-5-methylphenyl)-5-methyl-1H-1,2,3-triazole-4-carboxamide]
6 | 74 | 0.1 | 0.2 | 104 | > 30 | 0.074 ± 0.013 | 101 | – | – | – | – | – | – | COc1ccc(C)cc1-n1nnc(C(=O)Nc2cc(C(C)(C)C)cc(C(C)(C)C)c2)c1C [G4]
7 | 58 | 0.57 | 2.69 ± 0.93 | 46 | > 30 | 1.07 ± 0.43 | 53 | – | – | – | – | – | – | COc1ccc(OC)c(-n2nnc(C(=O)Nc3cc(OCCCCCCCCCl)cc(C(C)(C)C)c3)c2C)c1 [D24]
8 | 57 | 0.53 | 0.64 ± 0.1 | 109 | > 30 | 0.2 | 115 | – | – | – | – | – | – | COc1cc(NC(=O)c2nnn(-c3cc(C)ccc3OC)c2C)cc(C(C)(C)C)c1 [G8]
9 | – | – | > 30 | – | – | > 30 | – | > 30 | (25 ± 7)% | 0.9 ± 0.22 | – | – | – | COc1ccc(OC)c(-n2nnc(C(=O)Nc3cc(C(C)(C)C)ccc3N)c2C)c1 [B37]
10 | – | – | 11.9 ± 2.27 | 104 | > 30 | 7.09 ± 1.37 | 130 | > 30 | – | – | – | – | – | COc1ccc(OC)c(-n2nnc(C(=O)Nc3cc(NCCN)cc(C(C)(C)C)c3)c2C)c1 [D10]
11 | 93 | 0.015 ± 0.003 | 0.0069 ± 0.0005 | 105 | > 30 | 0.0011 ± 0.0005 | 165 | – | – | – | – | – | – | CCC[C@H](CC)Oc1ccc(C(C)(C)C)cc1NC(=O)c1nnn(-c2cc(OC)ccc2OC)c1C [M1, (S)—N-(5-(Tert-Butyl)-2-(Hexan-3-yloxy)Phenyl)-1-(2,5-Dimethoxyphenyl)-5-Methyl-1H-1,2,3-Triazole-4-Carboxamide]
12 | – | 0.27 ± 0.04 | – | – | > 30 | – | – | – | – | – | (110 ± 3)% | 0.34 | 0.11 | COc1ccc(OC)c(-n2nnc(C(=O)Nc3cc(N(C)C)cc(C(C)(C)C)c3)c2C)c1 [D3, N-(3-(tert-butyl)-5-(dimethylamino)phenyl)-1-(2,5-dimethoxyphenyl)-5-methyl-1H-1,2,3-triazole-4-carboxamide]
13 | 22 | 14 ± 4.79 | > 30 | – | 2.44 ± 1.02 | > 30 | – | – | (32 ± 7)% | – | – | – | – | COc1ccc(OC)c(-n2nnc(C(=O)Nc3ccc(C)cc3)c2C)c1 [A2]
14 | 24 | 0.39 ± 0.19 | > 30 | – | 1.45 ± 0.25 | > 30 | – | – | (103 ± 5)% | – | – | – | – | COc1ccc(OC)c(-n2nnc(NC(=O)Nc3cccc(C(C)(C)C)c3)c2C)c1 [K4]
15 | 70 | 1.26 | 22.1 ± 4.86 | 25 | > 30 | 12.7 ± 4.69 | 48 | – | – | – | – | – | – | COc1ccc(OC)c(-n2nnc(C(=O)Nc3cc(NC(=O)CCC(=O)O)cc(C(C)(C)C)c3)c2C)c1 [D6, 4-((3-(tert-butyl)-5-(1-(2,5-dimethoxyphenyl)-5-methyl-1H-1,2,3-triazole-4-carboxamido)phenyl)amino)-4-oxobutanoic acid]
16 | – | 0.5 ± 0.12 | – | – | > 30 | – | – | – | – | – | (82 ± 17)% | 0.62 ± 0.28 | 0.15 | CCCCN(CCCC)c1cc(NC(=O)c2nnn(-c3cc(OC)ccc3OC)c2C)cc(C(C)(C)C)c1 [D5, N-(3-(tert-butyl)-5-(dibutylamino)phenyl)-1-(2,5-dimethoxyphenyl)-5-methyl-1H-1,2,3-triazole-4-carboxamide]
17 | 77 | 0.013 ± 0.003 | 0.033 ± 0.004 | 107 | > 30 | 0.0034 ± 0.0003 | 106 | – | – | – | – | – | – | CCC[C@H](CC)Oc1ccccc1NC(=O)c1nnn(-c2cc(OC)ccc2OC)c1C [M3, (S)-1-(2,5-Dimethoxyphenyl)-N-(2-(Hexan-3-yloxy)Phenyl)-5-Methyl-1H-1,2,3-Triazole-4-Carboxamide]
18 | 18 | 0.053 ± 0.036 | > 30 | – | – | > 30 | – | – | (48 ± 1)% | 1.48 ± 0.17 | – | – | – | CCCCOc1ccc(C(C)(C)C)cc1NC(=O)c1nnn(-c2cc(OC)ccc2F)c1C [H8]
19 | – | – | > 30 | – | 24.5 ± 4.76 | > 30 | – | > 30 | (33 ± 2)% | – | – | – | – | COc1ccc(OC)c(-n2nnc(C(=O)Nc3ccccc3)c2C)c1 [A1, 1-(2,5-dimethoxyphenyl)-5-methyl-N-phenyl-1H-1,2,3-triazole-4-carboxamide]
20 | 85 | 0.0177 ± 0.0031 | 0.18 | 99 | > 30 | 0.026 | 100 | – | – | – | – | – | – | COc1ccc(OC)c(-n2nnc(C(=O)Nc3cc(C(C)(C)C)ccc3OCC(C)(C)C)c2C)c1 [B29]
21 | 54 | 6.94 ± 0.2 | > 30 | – | 5.16 ± 1.1 | > 30 | – | – | (24 ± 2)% | – | – | – | – | COc1ccc(-n2nnc(C(=O)Nc3ccc(NC(C)=O)c(C(C)(C)C)c3)c2C)cc1 [E2, N-(4-acetamido-3-(tert-butyl)phenyl)-1-(4-methoxyphenyl)-5-methyl-1H-1,2,3-triazole-4-carboxamide]
22 | 43 | 10.7 ± 0.23 | > 30 | – | 7.46 ± 1.11 | > 30 | – | – | (32 ± 2)% | – | – | – | – | COc1ccc(OC)c(-n2nnc(C(=O)NS(=O)(=O)c3ccc(C(C)(C)C)cc3)c2C)c1 [K5, N-((4-(tert-butyl)phenyl)sulfonyl)-1-(2,5-dimethoxyphenyl)-5-methyl-1H-1,2,3-triazole-4-carboxamide]
23 | 65 | 7.68 ± 1.45 | 18.2 ± 11.1 | 56 | > 30 | 3.62 ± 1.74 | 101 | – | – | – | – | – | – | COc1ccc(Cl)cc1-n1nnc(C(=O)Nc2cc(N)cc(C(C)(C)C)c2)c1C [F2, N-(3-amino-5-(tert-butyl)phenyl)-1-(5-chloro-2-methoxyphenyl)-5-methyl-1H-1,2,3-triazole-4-carboxamide]
24 | 25 | 0.024 | 0.19 | 107 | > 30 | 0.032 ± 0.007 | 116 | – | – | – | – | – | – | C#CCCCOc1cc(NC(=O)c2nnn(-c3cc(OC)ccc3OC)c2C)cc(C(C)(C)C)c1 [D19]
25 | 88 | 0.021 ± 0.005 | 0.049 ± 0.01 | 107 | > 30 | 0.0074 | 119 | – | – | – | – | – | – | COc1ccc(OC)c(-n2nnc(C(=O)Nc3cc(C(C)(C)C)ccc3OC(C)C)c2C)c1 [B12]
26 | 49 | 16.1 ± 0.54 | > 30 | – | > 30 | > 30 | – | – | – | – | – | – | – | CCc1cccc(NC(=O)c2nnn(-c3cc(OC)ccc3OC)c2C)c1 [A8]
27 | 86 | 4.12 ± 1.4 | > 30 | – | – | > 30 | – | – | (33 ± 7)% | 0.28 | – | – | – | COc1ccc(OC)c(-n2nnc(C(=O)Nc3ccc(N)c(C(C)(C)C)c3)c2C)c1 [C2, N-(4-amino-3-(tert-butyl)phenyl)-1-(2,5-dimethoxyphenyl)-5-methyl-1H-1,2,3-triazole-4-carboxamide]

Row | Structure (SMILES) | inhibition at 10 µM (hPXR [1]) [%] | IC50 (hPXR [1]; [5]) [µM] | IC50 (hPXR [2]) [µM] | inhibition at 10 µM (hPXR [2]) [%] | EC50 (hPXR [3]) [µM] | IC50 (hPXR [4]) [µM] | inhibition at 10 µM (hPXR [4]) [%] | IC50 (hPXR [1]) [µM] | Agonist (% activation at 10 μM) (hPXR [3]) | EC50 (hPXR [3]; [6]) [µM] | Antagonist (% inhibition at 10 μM) (hPXR [2]) | IC50 (hPXR [2]; [7]) [µM] | IC50 (hPXR [4]; [8]) [µM]
28 | CCC(C)Oc1ccc(C(C)(C)C)cc1NC(=O)c1nnn(-c2ccccc2OC)c1C (centres unmarked) [I3] | 88 | 0.0085 ± 0.0011 | 0.061 ± 0.011 | 66 | 0.066 ± 0.013 | > 30 | – | – | (25 ± 3)% | – | – | – | –
